Like-named read-outs stand apart in the source and are kept apart here.
Assays:
[1] = Stability of cocaine hapten
[2] = target: T1, dopamine transporters (DAT) (Macaca mulatta, UniProt Q7JHP9); conditions: rhesus monkeys, cited from earlier work
T1 construct: In rhesus monkeys, doses of 0.1 and 1.0 mg/kg cocaine occupy 53% and 87% of the DAT; host or cells: rhesus monkey brain, in vivo

[3] = target: T2, dopamine transporters (DAT) (Homo sapiens, UniProt Q01959); conditions: human cocaine abusers; cited from earlier work
T2 construct: In human cocaine abusers, at least 47% of the DAT needs to be occupied; host or cells: human brain, in vivo

female rhesus monkeys = assay: Cocaine and candy self-administration choice in female rhesus monkeys; format: in vivo; conditions: representative female monkey; either dose of cocaine available (FIG. 5)
From the text: FIG. 5 is a bar graph depicting cocaine and candy self-administration in female rhesus monkeys. The data is presented as a function of cocaine dose available.
A non-human primate model of intravenous cocaine self-administration will be used to determine if vaccination with Ad-cocaine decreases drug taking, which will likely provide the best predictor of clinical efficacy. To control for nonselective effects, monkeys will be trained to self-administer cocaine and candy, using a choice procedure. If the vaccine is effective at blocking the effects of cocaine, monkeys should decrease the number of cocaine choices self-administered and correspondingly increase the number of candy choices. A non-specific effect would be evidenced by a decrease in both cocaine and candy choices. After all monkeys have been trained to enter the primate chair and respond on the levers for candy, they will have vascular access port surgery (VAP). For self-administration sessions, monkeys will be placed into custom-built primate chairs, moved to the workstation, and connected to the infusion apparatus. Sessions will be conducted five days per week. Monkeys will initially be trained to self-administer 0.1 mg/kg cocaine per infusion. Once responding is stable, the cocaine dose available will be 0.05 mg/kg/infusion. […]

T1 sequence (Q7JHP9 1-620): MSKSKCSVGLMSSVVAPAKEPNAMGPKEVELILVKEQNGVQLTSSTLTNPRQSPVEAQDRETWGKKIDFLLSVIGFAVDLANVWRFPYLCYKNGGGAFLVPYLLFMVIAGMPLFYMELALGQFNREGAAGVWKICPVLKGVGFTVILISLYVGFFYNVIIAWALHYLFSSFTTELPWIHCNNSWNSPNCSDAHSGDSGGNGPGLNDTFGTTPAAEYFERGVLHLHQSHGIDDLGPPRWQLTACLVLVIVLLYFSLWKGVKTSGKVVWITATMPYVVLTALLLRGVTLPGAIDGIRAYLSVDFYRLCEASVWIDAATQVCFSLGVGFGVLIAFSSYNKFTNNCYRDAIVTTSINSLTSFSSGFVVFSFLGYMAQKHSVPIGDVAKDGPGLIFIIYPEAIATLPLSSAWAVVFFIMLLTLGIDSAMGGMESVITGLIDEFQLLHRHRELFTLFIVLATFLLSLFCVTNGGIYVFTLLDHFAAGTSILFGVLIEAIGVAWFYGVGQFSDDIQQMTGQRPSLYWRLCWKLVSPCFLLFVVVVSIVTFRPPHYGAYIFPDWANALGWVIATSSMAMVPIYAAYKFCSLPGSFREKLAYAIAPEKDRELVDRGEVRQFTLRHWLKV
T2 sequence (Q01959 whole entry): as the sequence (Q7JHP9 1-620) above, with M24V, V137I, S194P, G198S, N200D, G201S, P202S counted along it

Compound	stability relative to GNC [1]	occupancy of the DAT ([2]; 0.1 mg/kg cocaine) [%]	occupancy of the DAT ([2]; 1.0 mg/kg cocaine) [%]	DAT occupancy needed to perceive the subjective effects of cocaine [3]	choice between i.v. cocaine and candy (female rhesus monkeys)
CN1C2CCC1[C@@H](C(=O)NCCCCCC(=O)O)[C@@H](OC(=O)c1ccccc1)C2 (some centres unmarked) [GNE]	more stable than GNC				
COC(=O)[C@@H]1C2CCC(C[C@@H]1OC(=O)c1ccccc1)N2C (some centres unmarked) [cocaine]		53	87	at least 47%	exclusively chose cocaine over candy
